Measurements reported in patent US20210330756A1, “Acetylation of Miro1” (University of South Carolina, priority 2020, published 2021).

Key:
[1] = system: sciatic nerve unmyelinated axons; assay: EM count of mitochondria in unmyelinated sciatic nerve axons after nerve injection; type: in vivo, rat; conditions: 2 μl of 1.5 mM, EM 2 h after injection, vs vehicle
Experimental: To determine if TubA might also affect axonal mitochondria in vivo, we directly injected TubA into the sciatic nerve of adult rats at mid-thigh. […] As this could reflect stalling of mitochondria or increased numbers of anterogradely and/or retrogradely moving mitochondria, we performed in vivo imaging to visualize mitochondrial dynamics.
For in vivo inhibition of HDAC6, the sciatic nerve of anesthetized adult rats was injected twice at mid-thigh level with 2 μl of 1.5 mM TubA on the right and 2 μl of DMSO (vehicle control) on the left (isofluorane inhalation was used for anesthesia). Nerve injection sites were separated by 2 mm. […]
Vesicle trafficking was quantified using differential ImageJ Difference Tracker Plug-in (Andrews et al., 2010). 50-80-μm long unbranched axon segments at approximately the mid-region between growth cone and cell body were analyzed. […] The distance between the growth tip at end of the post-CALI sequence and the pre-CALI baseline was measured using LAS-X software. Movement of ≥0.5 μm toward the axon shaft was counted as retracted. Fluorescence emission of the Mito-KR post-CALI was analyzed using ImageJ. […] For axon shaft FRAP analyses, each 50-μm bleached ROI was divided into […], and the fluorescence intensity recovery was measured as described above. […] A minimum of 75 unmyelinated axons was analyzed for each nerve. […]

Ac-histone H4 = assay: Immunoblotting for Ac-histone H4 in adult DRG neurons (HDAC specificity); type: cell-based, rat
Experimental: We tested for this specificity in the adult DRG neurons from above by immunoblotting. […] (A) Number of mitochondria in growth cones after exposing DRG cultures to 10 μM TubA versus vehicle (control) for 1 h is shown as average fold-change in number of mitochondria per growth cone±SEM (n=13 axons across three culture preparations; *, P≤0.05 by one-way ANOVA with Bonferroni post hoc analysis). (B) Representative EMs of Remak bundles (arrowheads) in naive Sciatic nerve and nerves after 2 h vehicle (DMSO) or TubA injection are shown. Arrows indicate mitochondria in the unmyelinated axons. Note that a Schwann cell nucleus (asterisk) is seen in the Remak bundle for DMSO image but not the other two micrographs (scale bar=3 μm). (C) Quantification of number of mitochondria per unmyelinated axon from EM images as in B is shown as average±SEM (n≥5; *****, P≤0.0001 by one-way ANOVA with Bonferroni post hoc analysis). (D-F) Quantification for indicated parameters for mitochondrial transport in sciatic nerve in vivo using tetramethylrhodamine, ethyl ester, perchlorate to visualize mitochondria is shown.
For immunoblotting, protein lysates or immunoprecipitates were denatured by boiling in Laemmli sample buffer, fractionated by SDS-PAGE, and transferred to nitrocellulose membranes. Blots were blocked for 1 h at room temperature with 5% nonfat dry milk in TBS with 0.1% Tween 20 (TBST). Primary antibodies diluted in 5% BSA in TBST were added to the membranes and incubated overnight at 4° C. with rocking. Primary antibodies consisted of rabbit anti-Myc (1:2,000; Cell Signaling; 71D10), rabbit anti-RHOT1 antibody (1:1,000; Aviva Systems Biology; ARP44817 P050), rabbit anti-HDAC6 antibody (1:2,000; Cell Signaling; 7558), rabbit anti-ERK1 (1:5,000; Abcam; ab32537), and affinity-purified custom rabbit anti-Miro1-AcK105 (1:2,500; Twiss laboratory, see above) antibodies. For the anti-Miro1-AcK105 antibody, preimmune and test-bleed sera were used at 1:1,000 dilutions to initially evaluate for specificity. After washing in TBST, blots were incubated with HRP-conjugated anti-rabbit IgG antibodies (1:5,000; Jackson Immunoresearch) diluted in blocking buffer for 1 h at room temperature. Signals were detected using ECL Prime (GE Healthcare) after extensive washing.

CN1CCc2c(c3ccccc3n2Cc2ccc(C(=O)NO)cc2)C1 [TubA, tubastatin]
mitochondrial numbers in unmyelinated axons [1]: significantly increased mitochondrial numbers
Ac-histone H4 levels (Ac-histone H4; 1 μM): no change in Ac-histone H4 levels
Ac-histone H4 levels (Ac-histone H4; 10 μM): no change in Ac-histone H4 levels
Ac-histone H4 levels (Ac-histone H4; 100 μM): only modest increase in Ac-histone H4
